Among the data in ChEMBL document CHEMBL5154648, “Antitumor activity of novel POLA1-HDAC11 dual inhibitors” (Eur J Med Chem, 2022) are Activity, inhibition and inhibition in vivo values, retold here.

SMILES strings stand for the structures. The source made the active and inactive calls. No cut-off for these calls is given here.

The test system of data set [1] is MM473. Nature of the data set: Induction of cell cycle arrest in human MM473-Luc cells assessed as accumulation of cells at G0/1 phase at 1.4 uM after 72 hrs by flow cytometry (reference value: 74.7%). The format is functional. (A flow cytometer gives signals particle by particle.)
Data set [2] has as its target T1, Protein deacetylase HDAC6 (Homo sapiens) (UniProt Q9UBN7).
T1 sequence (whole entry): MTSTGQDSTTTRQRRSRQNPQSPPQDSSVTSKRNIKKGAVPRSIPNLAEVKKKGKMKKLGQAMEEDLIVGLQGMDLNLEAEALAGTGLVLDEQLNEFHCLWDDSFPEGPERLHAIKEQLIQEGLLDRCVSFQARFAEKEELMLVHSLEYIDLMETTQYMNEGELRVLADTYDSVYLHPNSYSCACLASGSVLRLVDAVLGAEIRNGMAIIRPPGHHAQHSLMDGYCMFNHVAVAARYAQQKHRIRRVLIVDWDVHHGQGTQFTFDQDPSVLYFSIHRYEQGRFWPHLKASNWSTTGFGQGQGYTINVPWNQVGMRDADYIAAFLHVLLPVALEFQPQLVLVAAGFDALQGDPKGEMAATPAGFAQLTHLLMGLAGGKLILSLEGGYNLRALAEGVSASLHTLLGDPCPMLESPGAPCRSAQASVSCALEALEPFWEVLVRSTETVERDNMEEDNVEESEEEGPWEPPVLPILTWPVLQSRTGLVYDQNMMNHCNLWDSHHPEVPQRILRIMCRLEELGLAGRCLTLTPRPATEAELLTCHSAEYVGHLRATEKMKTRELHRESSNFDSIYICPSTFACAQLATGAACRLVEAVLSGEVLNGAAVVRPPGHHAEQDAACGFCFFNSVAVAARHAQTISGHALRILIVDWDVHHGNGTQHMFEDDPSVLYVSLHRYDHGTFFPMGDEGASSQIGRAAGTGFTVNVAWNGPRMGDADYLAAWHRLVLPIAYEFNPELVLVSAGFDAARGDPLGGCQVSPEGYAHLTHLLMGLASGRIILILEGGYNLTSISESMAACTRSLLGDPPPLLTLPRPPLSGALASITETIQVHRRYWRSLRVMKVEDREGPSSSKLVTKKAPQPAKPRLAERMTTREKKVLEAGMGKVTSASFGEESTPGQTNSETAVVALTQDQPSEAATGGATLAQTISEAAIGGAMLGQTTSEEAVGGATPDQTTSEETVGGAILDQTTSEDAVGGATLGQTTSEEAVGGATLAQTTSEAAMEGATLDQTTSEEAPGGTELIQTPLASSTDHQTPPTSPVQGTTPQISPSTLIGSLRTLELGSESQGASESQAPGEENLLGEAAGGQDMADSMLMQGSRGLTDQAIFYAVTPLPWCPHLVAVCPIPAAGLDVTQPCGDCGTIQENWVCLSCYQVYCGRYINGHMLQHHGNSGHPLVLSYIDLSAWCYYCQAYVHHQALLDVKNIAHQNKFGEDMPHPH
Description: Inhibition of HDAC6 in human NCI-H460 cells at high-dose assessed as increase in alpha-tubulin acetylation measured by Western blot analysis. The format is cell-based.

In data set [3] the test system is NCI-H460. Nature of the data set: Induction of cell cycle arrest in human NCI-H460 cells assessed as accumulation of cells at sub-G1 phase at 0.26 uM after 72 hrs by flow cytometry (reference value: 1.1%). The format is functional.
Data set [4] has as its system A2780. Nature of the data set: Induction of cell cycle arrest in human A2780 cells assessed as accumulation of cells at S phase at 0.95 uM after 72 hrs by flow cytometry (reference value: 36.3%). It counts as functional.
Data set [5] relates to MM473. Nature of the data set: Induction of cell cycle arrest in human MM473-Luc cells assessed as accumulation of cells at S phase at 1.4 uM after 72 hrs by flow cytometry (reference value: 13.7%). The format is functional.
In the next data set the test system is MM487. Description: Induction of DNA damage in human MM487 cells at 0.1 to 0.4 uM assessed as increase in p-H2AX levels and measured by Western blot analysis. The format is functional, cell-based. As to conditions: dose 0.1-0.4 µM.
A short description of data set [6]: Antitumor activity against human H460-R9A cells xenografted in mouse assessed as tumor growth inhibition at 50 mg/kg, po qd administered 5 times a week for 3 to 4 weeks. The format is functional. The note with it: time 3-4 weeks, read-out: TGI.
The subject of data set [7] is A2780. Nature of the data set: Induction of cell cycle arrest in human A2780 cells assessed as accumulation of cells at G2/M phase at 0.6 uM after 72 hrs by flow cytometry (reference value: 15%). The format is functional.
In data set [8] the test system is MM473. Nature of the data set: Induction of DNA damage in human MM473 cells at 0.1 to 0.4 uM assessed as increase in p-H2AX levels and measured by Western blot analysis. The format is functional, cell-based. The note with it: dose 0.1-0.4 µM. Background: A western blot detects proteins with antibodies after separation by electrophoresis.
Data set [9] in a line: Induction of cell cycle arrest in human H460-R9A cells assessed as accumulation of cells at S phase at 2.8 uM after 72 hrs by flow cytometry (reference value: 34.5%). It counts as functional.
Data set [10] deals with NCI-H460. Description: Induction of cell cycle arrest in human NCI-H460 cells assessed as accumulation of cells at G2/M phase at 0.25 uM after 72 hrs by flow cytometry (reference value: 21.1%). It counts as functional.
Data set [11] in a line: Antitumor activity against human H460-R9A cells xenografted in mouse assessed as tumor growth inhibition at 50 mg/kg, po qd administered 5 times a week for 3 to 4 weeks in combination with cisplatin at 4 mg/kg, iv administered every 7 days for 4 weeks. It counts as functional. The note with it: time 3-4 weeks, read-out: TGI.
Data set [12] deals with A2780. Nature of the data set: Induction of cell cycle arrest in human A2780 cells assessed as accumulation of cells at G0/1 phase at 0.6 uM after 72 hrs by flow cytometry (reference value: 48.7%). The format is functional.
The test system of data set [13] is MM473. Nature of the data set: Induction of cell cycle arrest in human MM473-Luc cells assessed as accumulation of cells at G2/M phase at 1.2 uM after 72 hrs by flow cytometry (reference value: 11.7%). The format is functional.
Data set [14] deals with A2780. Description: Induction of cell cycle arrest in human A2780 cells assessed as accumulation of cells at sub-G1 phase at 0.6 uM after 72 hrs by flow cytometry (reference value: 1.6%). The format is functional.
The test system of data set [15] is A2780. Nature of the data set: Induction of cell cycle arrest in human A2780 cells assessed as accumulation of cells at S phase at 0.6 uM after 72 hrs by flow cytometry (reference value: 36.3%). The format is functional.
Data set [16] can be described thus: Toxicity in mouse xenografted with human NCI-H460 cells assessed as body weight loss at 50 mg/kg, po qd administered 5 times a week for 3 to 4 weeks. It counts as organism-based. The note with it: in vivo, time 3-4 weeks.
Data set [17] in a line: Toxicity in mouse xenografted with human H460-R9A cells assessed as body weight loss at 50 mg/kg, po qd administered 5 times a week for 3 to 4 weeks in combination with cisplatin at 4 mg/kg, iv administered every 7 days for 4 weeks. It counts as organism-based. As to conditions: in vivo, time 3-4 weeks. (In general: In xenograft studies the graft and the host belong to different species.)

The test system of data set [18] is NCI-H460. Nature of the data set: Induction of cell cycle arrest in human NCI-H460 cells assessed as accumulation of cells at G0/1 phase at 0.12 uM after 72 hrs by flow cytometry (reference value: 46.8%). The format is functional.
For data set [19], the system named is NCI-H460. Description: Induction of cell cycle arrest in human NCI-H460 cells assessed as accumulation of cells at G2/M phase at 0.12 uM after 72 hrs by flow cytometry (reference value: 21.1%). It counts as functional.
The nature of data set [20]: Induction of cell cycle arrest in human H460-R9A cells assessed as accumulation of cells at S phase at 2.2 uM after 72 hrs by flow cytometry (reference value: 34.5%). The format is functional.

As for `CC(Oc1ccc(-c2ccc(C=CC(=O)O)cc2)cc1C12CC3CC(CC(C3)C1)C2)C(=O)NO` (stereo unspecified), the Activity is given as 2.3% in the data set with MM473 [1], 13.2% in the data set with NCI-H460 [3], 86.2% in the data set on A2780 [4] and 81.6% in the data set on MM473 [5]. Besides, in data set [2], the inhibition entry is “Active”.
In the case of `O=C(O)C=Cc1ccc(-c2ccc(OCC(=O)NO)c(C34CC5CC(CC(C5)C3)C4)c2)cc1`, the result with MM487 and with MM473 [8] was Active. In addition, the inhibition in vivo at 50 mg/kg in [6] was 38%; in [11] it was 78%. Moreover, the Activity in the data set on A2780 [7] came out at 6.5%; in data set [9], 37.4%; with NCI-H460 [10], 2.8%; in the data set with A2780 [12], 14.6%; in the data set with MM473 [13] it was 14.1%; in the data set on A2780 [14], 33.3%. The Activity is 78.9% with A2780 [15], 0% in [16] and 0% in data set [17].
`O=C(O)C=Cc1ccc(-c2ccc(O)c(C34CC5CC(CC(C5)C3)C4)c2)cc1`: the Activity is recorded as 13.8% in the data set on NCI-H460 [18], 6.5% in the data set with NCI-H460 [19] and 63.4% in data set [20].
